According to patent US20180169021A1, “RANOLAZINE MULTIPLE COMPRESSED TABLETS” (INTERQUIM, S.A., priority 2015, published 2018):
Values after ≈ are worked out from the molar mass of the structure shown. Like-named read-outs stand apart in the source and are kept apart here.

Tests used:
[1] = Dissolution in time of 500 mg ranolazine compressed into tablets, 900 mL aqueous media, paddle 100 rpm (FIG. 1); format: physicochemical; conditions: 100% ranolazine tablet
From the text: As shown in the previous table, ranolazine is much more soluble at acidic pH than in neutral or basic pH.

[2] = cited from earlier work
[3] = quoted from WO0166093 A2; cited from earlier work

In the case of `COc1ccccc1OCC(O)CN1CCN(CC(=O)Nc2c(C)cccc2C)CC1` (centres unmarked) [Ranolazine, N-(2,6-dimethylphenyl)-2-(4-(2-hydroxy-3-(2-methoxyphenoxy)propyl)piperazin-1-yl)acetamide], the “Time until all the ranolazine is dissolved” value ([1]; pH 1 (0.1 M HCl)) is reported as “less than 30 minutes”, the Ranolazine dissolved ([1]; pH 6.8, 30 minutes) is reported as “around 63%” and the Extent of dissolution ([1]; pH 6.8, 12 hours) is reported as “not yet fully dissolved”. For the same compound, the Solubility ([2]; Solution pH 4.81) was 161000 µg/mL (≈ 377 mM), the “USP Solubility Class” value ([2]; Solution pH 4.81) was “Freely Soluble” and the Solubility ([2]; Solution pH 4.89) was 73800 µg/mL (≈ 173 mM). For the same compound, the “USP Solubility Class” value ([2]; Solution pH 4.89) was “Soluble”, the Solubility ([2]; Solution pH 4.90) was 76400 µg/mL (≈ 179 mM) and the “USP Solubility Class” value ([2]; Solution pH 4.90) was “Soluble”. For the same compound, the Solubility ([2]; Solution pH 5.04) was 49400 µg/mL (≈ 116 mM), the “USP Solubility Class” value ([2]; Solution pH 5.04) was “Soluble” and the Solubility ([2]; Solution pH 5.35) was 16700 µg/mL (≈ 39.1 mM). For the same compound, the “USP Solubility Class” value ([2]; Solution pH 5.35) was “Sparingly Soluble”, the Solubility ([2]; Solution pH 5.82) was 5480 µg/mL (≈ 12.8 mM) and the “USP Solubility Class” value ([2]; Solution pH 5.82) was “Slightly soluble”. The Solubility ([2]; Solution pH 6.46) was 1630 µg/mL (≈ 3.81 mM), the “USP Solubility Class” value ([2]; Solution pH 6.46) was “Slightly soluble” and the Solubility ([2]; Solution pH 6.73) was 830 µg/mL (≈ 1.94 mM). For the same compound, the “USP Solubility Class” value ([2]; Solution pH 6.73) was “Very slightly soluble”, the Solubility ([2]; Solution pH 7.08) was 390 µg/mL (≈ 0.912 mM) and the “USP Solubility Class” value ([2]; Solution pH 7.08) was “Very slightly soluble”. For the same compound, the Solubility ([2]; Solution pH 7.59*) was 240 µg/mL (≈ 0.561 mM), the “USP Solubility Class” value ([2]; Solution pH 7.59*) was “Very slightly soluble” and the Solubility ([2]; Solution pH 7.79) was 170 µg/mL (≈ 0.398 mM). The “USP Solubility Class” value ([2]; Solution pH 7.79) was “Very slightly soluble”, the Solubility ([2]; Solution pH 12.66) was 180 µg/mL (≈ 0.421 mM) and the “USP Solubility Class” value ([2]; Solution pH 12.66) was “Very slightly soluble”. The Solubility ([2]; low pH that occurs in the stomach, quoted from WO0166093 A2) was “relatively high” and the Plasma half-life [3] was “relatively short”.
